Source: patent US20090270350A1, “Pyridinone Pyrazole Urea and Pyrimidinone Pyrazole Urea Derivatives” (PFIZER INC., priority 2006, published 2009)
Read-outs that look alike come from different tables or passages of the source.

Experiments:
[1] = target: p38α (Homo sapiens, UniProt Q16539); assay: p38α/MK2 cascade assay; assay type: biochemical; settings: read-out: p38a/MK2 Cascade 40 min Pre-Incuabtion (% Inhibition): IC50
Method in brief: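 In a cascade format, p38α was preincubated 40 min with inhibitor (1000–0.05 nM) before adding 1 nM nonactive MK2 (54-400), 5 μM MgATP and 0.5 μM FITC-Hsp27 peptide. Reaction ran 60 min in HEPES pH 7.5 with MgCl2, DTT, 2% DMSO, then EDTA-quenched. Peptide phosphorylation was measured by Caliper mobility shift to give IC50.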

[2] = Table 2, same p38α/MK2 cascade assay, 40 minutes preincubation
[3] = Table 1, inhibitors preincubated with p38α for 40 minutes, phosphorylation of Hsp27 peptide by MK-2, Caliper LabChip 3000

Chain of p38α (Q16539 whole entry): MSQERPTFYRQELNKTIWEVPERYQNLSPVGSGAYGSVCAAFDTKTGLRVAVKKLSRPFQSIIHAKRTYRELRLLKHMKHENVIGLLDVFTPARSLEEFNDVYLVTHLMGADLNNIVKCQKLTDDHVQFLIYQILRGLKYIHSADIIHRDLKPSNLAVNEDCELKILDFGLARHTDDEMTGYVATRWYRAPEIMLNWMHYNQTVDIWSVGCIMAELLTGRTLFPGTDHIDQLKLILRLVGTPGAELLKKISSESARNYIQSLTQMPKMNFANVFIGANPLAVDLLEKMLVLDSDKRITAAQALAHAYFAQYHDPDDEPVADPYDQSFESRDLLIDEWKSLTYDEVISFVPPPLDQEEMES

Compound | melting point [°C] | other results
Cc1ccc(C(=O)NCCO)cc1-n1c(C)cc(OCc2ccccc2CNC(=O)Nc2cc(C(C)(C)C)nn2-c2cccc(OCCO)c2)c(Cl)c1=O [Example 132, 3-{4-[2-(3-{5-tert-Butyl-2-[3-(2-hydroxy-ethoxy)-phenyl]-2H-pyrazol-3-yl}-ureidomethyl)-benzyloxy]-3-chloro-6-methyl-2-oxo-2H-pyridin-1-yl}-N-(2-hydroxy-ethyl)-4-methyl-benzamide] | 162 to 163 | –
CNC(=O)c1ccc(C)c(-n2c(C)cc(OCc3ccccc3CNC(=O)Nc3cc(C(C)(C)C)nn3-c3ccc(Cl)c(O)c3)c(Cl)c2=O)c1 [Example 161, 3-[4-(2-{3-[5-tert-butyl-2-(4-chloro-3-hydroxy-phenyl)-2H-pyrazol-3-yl]-ureidomethyl}-benzyloxy)-3-chloro-6-methyl-2-oxo-2H-pyridin-1-yl]-4,N-dimethyl-benzamide] | 201 to 203 | –
Cc1ccc(C(=O)NCCO)cc1-n1c(C)cc(OCc2ccccc2CNC(=O)Nc2cc(C(C)(C)C)nn2-c2ccc(Cl)c(O)c2)c(Cl)c1=O [Example 162, 3-[4-(2-{3-[5-tert-butyl-2-(4-chloro-3-hydroxy-phenyl)-2H-pyrazol-3-yl]-ureidomethyl}-benzyloxy)-3-chloro-6-methyl-2-oxo-2H-pyridin-1-yl]-N-(2-hydroxy-ethyl)-4-methyl-benzamide] | 196 to 197 | –
CNC(=O)c1ccc(C)c(-n2c(C)cc(OCc3ccccc3CNC(=O)Nc3cc(C(C)(C)C)nn3-c3cccc(OCCO)c3)c(Cl)c2=O)c1 [Example 133, 3-{4-[2-(3-{5-tert-butyl-2-[3-(2-hydroxy-ethoxy)-phenyl]-2H-pyrazol-3-yl}-ureidomethyl)-benzyloxy]-3-chloro-6-methyl-2-oxo-2H-pyridin-1-yl}-4,N-dimethyl-benzamide] | 168 to 170 | –
COC(=O)c1ccc(C)c(-n2c(C)cc(OCc3ccccc3CNC(=O)Nc3cc(C(C)(C)C)nn3-c3ccc(Cl)c(O)c3)c(Cl)c2=O)c1 [Example 138, 3-[4-(2-{3-[5-tert-butyl-2-(4-chloro-3-hydroxy-phenyl)-2H-pyrazol-3-yl]-ureidomethyl}-benzyloxy)-3-chloro-6-methyl-2-oxo-2H-pyridin-1-yl]-4-methyl-benzoic acid methyl ester] | 193 to 195 | –
COC(=O)c1ccc(C)c(-n2c(C)cc(OCc3ccc(F)cc3CNC(=O)Nc3cc(C(C)(C)C)nn3-c3ccc(O)c(Cl)c3)c(Cl)c2=O)c1 [Example 140, 3-[4-(2-{3-[5-tert-butyl-2-(3-chloro-4-hydroxy-phenyl)-2H-pyrazol-3-yl]-ureidomethyl}-4-fluoro-benzyloxy)-3-chloro-6-methyl-2-oxo-2H-pyridin-1-yl]-4-methyl-benzoic acid methyl ester] | 197 to 200 | –
COC(=O)c1ccc(C)c(-n2c(C)cc(OCc3ccc(F)cc3CNC(=O)Nc3cc(C(C)(C)C)nn3-c3ccc(O)cc3)c(Cl)c2=O)c1 [Example 136, 3-[4-(2-{3-[5-tert-butyl-2-(4-hydroxy-phenyl)-2H-pyrazol-3-yl]-ureidomethyl}-4-fluoro-benzyloxy)-3-chloro-6-methyl-2-oxo-2H-pyridin-1-yl]-4-methyl-benzoic acid methyl ester] | 188 to 190 | –
Cc1ccc(C(=O)NCC(N)=O)cc1-n1c(C)cc(OCc2ccccc2CNC(=O)Nc2cc(C(C)(C)C)nn2-c2ccc(O)c(Cl)c2)c(Cl)c1=O [Example 160, 3-[4-(2-{3-[5-tert-butyl-2-(3-chloro-4-hydroxy-phenyl)-2H-pyrazol-3-yl]-ureidomethyl}-benzyloxy)-3-chloro-6-methyl-2-oxo-2H-pyridin-1-yl]-N-carbamoylmethyl-4-methyl-benzamide] | 228 to 230 | –
Cc1ccc(C(=O)NCC(N)=O)cc1-n1c(C)cc(OCc2ccccc2CNC(=O)Nc2cc(C(C)(C)C)nn2-c2ccc(O)c(Cl)c2)c(Cl)c1=O [Example 233, N-(2-amino-2-oxoethyl)-3-{4-[(2-{[({[3-tert-butyl-1-(3-chloro-4-hydroxyphenyl)-1H-pyrazol-5-yl]amino}carbonyl)amino]-methyl}benzyl)oxy]-3-chloro-6-methyl-2-oxopyridin-1(2H)-yl}-4-methylbenzamide] | – | IC50 [1, 2]: 1.5 nM
COc1ccc(Cn2c(C)cc(OCc3ccccc3CNC(=O)Nc3cc(C(C)(C)C)nn3-c3cccc(O)c3)c(C)c2=O)cc1C#N [Example 252, 1-[3-tert-butyl-1-(3-hydroxyphenyl)-1H-pyrazol-5-yl]-3-[2-({[1-(3-cyano-4-methoxybenzyl)-3,6-dimethyl-2-oxo-1,2-dihydro-pyridin-4-yl]oxy}methyl)benzyl]urea] | – | IC50 [1, 2]: 6 nM
COc1ccc(Cn2c(C)cc(OCc3ccccc3CNC(=O)Nc3cc(C(C)(C)C)nn3-c3cccc(F)c3)c(Br)c2=O)c(OC)c1 [Example 117, 1-[2-({[3-bromo-1-(2,4-dimethoxybenzyl)-6-methyl-2-oxo-1,2-dihydropyridin-4-yl]oxy}methyl)benzyl]-3-[3-tert-butyl-1-(3-fluorophenyl)-1H-pyrazol-5-yl]urea] | – | IC50 [1, 3]: 15.7 nM
COc1cccc(Cn2c(C)cc(OCc3ccc(F)cc3CNC(=O)Nc3cc(C(C)(C)C)nn3-c3cccc(OCCO)c3)c(Cl)c2=O)c1 [Example 39, 1-{3-tert-butyl-1-[3-(2-hydroxyethoxy)phenyl]-1-pyrazol-5-yl}-3-[2-({[3-chloro-1-(3-methoxybenzyl)-6-methyl-2-oxo-1,2-dihydropyridin-4-yl]oxy}methyl)-5-fluorobenzyl]urea] | – | IC50 [1, 3]: 7.3 nM
Cc1ccc(C(=O)N[C@@H](C)C(N)=O)cc1-n1c(C)cc(OCc2ccccc2CNC(=O)Nc2cc(C(C)(C)C)nn2-c2ccc(O)cc2)c(Cl)c1=O [Example 220, N-[(1S)-2-amino-1-methyl-2-oxoethyl]-3-{4-[(2-{[({[3-tert-butyl-1-(4-hydroxyphenyl)-1H-pyrazol-5-yl]amino}carbonyl)-amino]methyl}benzyl)oxy]-3-chloro-6-methyl-2-oxopyridin-1(2H)-yl}-4-methylbenzamide] | – | IC50 [1, 2]: 1.4 nM

Second part, led by results:

melting point [°C] | Compound | other results
186 to 187 | COCCNC(=O)c1ccc(C)c(-n2c(C)cc(OCc3ccc(F)cc3CNC(=O)Nc3cc(C(C)(C)C)nn3-c3ccc(Cl)c(O)c3)c(Cl)c2=O)c1 [Example 164, 3-[4-(2-{3-[5-tert-butyl-2-(4-chloro-3-hydroxy-phenyl)-2H-pyrazol-3-yl]-ureidomethyl}-4-fluoro-benzyloxy)-3-chloro-6-methyl-2-oxo-2H-pyridin-1-yl]-N-(2-methoxy-ethyl)-4-methyl-benzamide] | –
182 to 183 | COCCNC(=O)c1ccc(C)c(-n2c(C)cc(OCc3ccccc3CNC(=O)Nc3cc(C(C)(C)C)nn3-c3ccc(Cl)c(O)c3)c(Cl)c2=O)c1 [Example 163, 3-[4-(2-{3-[5-tert-butyl-2-(4-chloro-3-hydroxy-phenyl)-2H-pyrazol-3-yl]-ureidomethyl}-benzyloxy)-3-chloro-6-methyl-2-oxo-2H-pyridin-1-yl]-N-(2-methoxy-ethyl)-4-methyl-benzamide] | –
185 to 186 | Cc1ccc(C(=O)NCCN(C)C)cc1-n1c(C)cc(OCc2ccccc2CNC(=O)Nc2cc(C(C)(C)C)nn2-c2ccc(Cl)c(O)c2)c(Cl)c1=O [Example 165, 3-[4-(2-{3-[5-tert-butyl-2-(4-chloro-3-hydroxy-phenyl)-2H-pyrazol-3-yl]-ureidomethyl}-benzyloxy)-3-chloro-6-methyl-2-oxo-2H-pyridin-1-yl]-N-(2-dimethylamino-ethyl)-4-methyl-benzamide] | –
